Data taken from patent US5466687A, “Arylidene-1-azacycloalkanes and arylalkyl-1-azacyclo-alkanes, their salts, medicaments containing these compounds and their use, and processes for their preparation” (priority 1992, dated 1995).

Legend:
[1] = test system: 2,3-epoxysqualene-lanosterol cyclase; assay: In vivo effect in the rat after oral administration: 2,3-epoxysqualene level in plasma; design: species or system rat (male Wistar); settings: 5 hours after administration
Procedure: II. Measurement of the in vivo effect in the rat after oral administration
The inhibition of the enzyme 2,3-epoxysqualene-lanosterol cyclase causes an increase in the 2,3-epoxy-squalene level in the liver and plasma. Therefore, the amount of 2,3-epoxysqualene formed therefore serves as a direct measure of the effectiveness in the whole animal. The determination is carried out by the following method:
The test substance suspended in 1.5% strength aqueous methylcellulose is administered via stomach tube to male Wistar rats (160-190 g body weight). 5 hours after administration, blood is obtained retroorbitally from the venous plexus. Plasma is extracted by the method of Bligh and Dyer (Canad. J. Biochem. Physiol. 37, 912, [1959]), purified by means of a precolumn and then analyzed by means of HPLC. The peaks obtained are identified and quantified by means of calibration substances. An internal standard is used to check the reproducibility of the results.
The investigations were carried out using concentrations of 0.1 and 1.0 mg/kg. The results for the above mentioned substances A to M are compiled in the following Table by way of example: […]

[2] = test system: human hepatoma cells (HEP-G2); assay: Inhibition of 14C-acetate incorporation in digitonin-precipitatable steroids in HEP-G2 cells; assay type: cell-based; settings: for percent change in 14C-acetate incorporation into sterols at 0.1 µM / percent change in 14C-acetate incorporation into sterols at 0.01 µM: Homo sapiens; for percent change in 14C-acetate incorporation into sterols at 0.1 µM: HepG2, 10^-7 mol/l; for percent change in 14C-acetate incorporation into sterols at 0.01 µM: HepG2, 10^-8 mol/l
Procedure: I. Measurement of the inhibition of ^14 C-acetate incorporation in digitonin-precipitatable steroids:
After 3 days of culture, human hepatoma cells (HEP-G2) are stimulated for 16 hours in cholesterol-free medium. The substances to be tested (dissolved in dimethyl sulphoxide, final concentration 0.1%) are added during this stimulation phase. After the addition of 200 μmol/l of 2-^14 C-acetate, the mixture is then reincubated at 37° C. for a further 2 hours.
The cells are detached and the sterol esters are hydrolyzed and, after extraction, sterols are precipitated using digitonin. The ^14 C-acetate incorporated into digitonin-precipitatable sterols is determined by scintillation measurement.
The investigation of the inhibitory action was carried out at test concentrations of 10^-7 mol/l and 10^-8 mol/l. The test results of the following compounds A to AG of the general formula I are indicated at these test concentrations by way of example: […]

Cc1cc(C(=O)N2CCC(=Cc3ccc(C4=NCCO4)cc3)CC2)ccc1Cl [D, 1-(4-chloro-3-methylbenzoyl)-4-[4-(2-oxazolin-2-yl)benzylidene]piperidine]
2,3-Epoxysqualene concentration in plasma (rat) ([1]; 0.1 mg/kg oral): 0.78 µg/mL | 2,3-Epoxysqualene concentration in plasma (rat) ([1]; 1.0 mg/kg oral): 3.35 µg/mL | percent change in 14C-acetate incorporation into sterols at 0.1 µM [2]: -88% | percent change in 14C-acetate incorporation into sterols at 0.01 µM [2]: -55%

O=S(=O)(c1ccc(Cl)cc1)N1CCC(=Cc2ccc(C3=NCCO3)cc2)CC1 [N, 1-(4-chlorobenzenesulphonyl)-4-[4-(2-oxazolin-2-yl)benzylidene]piperidine]
percent change in 14C-acetate incorporation into sterols at 0.1 µM [2]: -86% | percent change in 14C-acetate incorporation into sterols at 0.01 µM [2]: -63%

O=C(c1ccc(Cl)cc1)N1CCC(=Cc2ccc(C3=NC(CO)CO3)cc2)CC1 (centres unmarked) [U, 1-(4-chlorobenzoyl)-4-[4-(4-hydroxymethyl-2-oxazolin-2-yl)benzylidene]piperidine]
percent change in 14C-acetate incorporation into sterols at 0.1 µM [2]: -60% | percent change in 14C-acetate incorporation into sterols at 0.01 µM [2]: -21%

O=C(c1ccc(C(F)(F)F)cc1)N1CCC(=Cc2ccc(C3=NCCO3)cc2)CC1 [C, 4-[4-(2-oxazolin-2-yl)benzylidene]-1-(4-trifluoromethylbenzoyl)piperidine]
2,3-Epoxysqualene concentration in plasma (rat) ([1]; 0.1 mg/kg oral): 0.91 µg/mL | 2,3-Epoxysqualene concentration in plasma (rat) ([1]; 1.0 mg/kg oral): 5.90 µg/mL | percent change in 14C-acetate incorporation into sterols at 0.1 µM [2]: -90% | percent change in 14C-acetate incorporation into sterols at 0.01 µM [2]: -74%

O=C(c1ccc(Br)cc1)N1CCC(=Cc2ccc(C3=NCCO3)cc2)CC1 [AD, 1-(4-bromobenzoyl)-4-[4-(2-oxazolin-2-yl)benzylidene]piperidine]
percent change in 14C-acetate incorporation into sterols at 0.1 µM [2]: -85% | percent change in 14C-acetate incorporation into sterols at 0.01 µM [2]: -44%

O=C(c1ccccc1)N1CCC(=Cc2ccc(C3=NCCO3)cc2)CC1 [AA, 1-benzoyl-4-[4-(2-oxazolin-2-yl)benzylidene]piperidine]
percent change in 14C-acetate incorporation into sterols at 0.1 µM [2]: -70% | percent change in 14C-acetate incorporation into sterols at 0.01 µM [2]: -25%

O=C(c1ccc(Cl)s1)N1CCC(=Cc2ccc(C3=NCCO3)cc2)CC1 [F, 1-(5-chloro-2-thienoyl)-4-[4-(2-oxazolin-2-yl)benzylidene]piperidine]
2,3-Epoxysqualene concentration in plasma (rat) ([1]; 0.1 mg/kg oral): 0.00 µg/mL | 2,3-Epoxysqualene concentration in plasma (rat) ([1]; 1.0 mg/kg oral): 2.00 µg/mL | inhibition of 14C-acetate incorporation ([2]; 10^-8 mol/l): -55% | percent change in 14C-acetate incorporation into sterols at 0.1 µM [2]: -84%

C[C@@H]1COC(c2ccc(C=C3CCN(C(=O)c4ccc(Cl)cc4)CC3)cc2)=N1 [R, 1-(4-chlorobenzoyl)-4-[4-(R-4-methyl-2-oxazolin-2-yl)benzylidene]piperidine]
percent change in 14C-acetate incorporation into sterols at 0.1 µM [2]: -88% | percent change in 14C-acetate incorporation into sterols at 0.01 µM [2]: -57%

O=C(c1ccc(Cl)s1)N1CCC(=Cc2ccc(C3=NCCO3)cc2)CC1 [X, 1-(5-chloro-2-thienoyl)-4-[4-(2-oxazolin-2-yl)benzylidene]piperidine]
inhibition of 14C-acetate incorporation ([2]; 10^-7 mol/l): -84% | inhibition of 14C-acetate incorporation ([2]; 10^-8 mol/l): -35%

CC(C)(C)c1ccc(C(=O)N2CCC(=Cc3ccc(C4=NCCO4)cc3)CC2)cc1 [AB, 1-(4-tert.butylbenzoyl)-4-[4-(2-oxazolin-2-yl)benzylidene]piperidine]
percent change in 14C-acetate incorporation into sterols at 0.1 µM [2]: -18% | percent change in 14C-acetate incorporation into sterols at 0.01 µM [2]: -6%

O=C(c1ccc(Cl)cc1)N1CCC(=Cc2ccc(C3=NCCCO3)cc2)CC1 [B, 1-(4-chlorobenzoyl)-4-[4-(4,5-dihydro-6H-oxazin-2-yl)benzylidene]piperidine]
2,3-Epoxysqualene concentration in plasma (rat) ([1]; 0.1 mg/kg oral): 0.46 µg/mL | 2,3-Epoxysqualene concentration in plasma (rat) ([1]; 1.0 mg/kg oral): 3.14 µg/mL | percent change in 14C-acetate incorporation into sterols at 0.1 µM [2]: -77% | percent change in 14C-acetate incorporation into sterols at 0.01 µM [2]: -51%

O=C(c1ccc([N+](=O)[O-])cc1)N1CCC(=Cc2ccc(C3=NCCO3)cc2)CC1 [AE, 1-(4-nitrobenzoyl)-4-[4-(2-oxazolin-2-yl)benzylidene]piperidine]
percent change in 14C-acetate incorporation into sterols at 0.1 µM [2]: -71% | percent change in 14C-acetate incorporation into sterols at 0.01 µM [2]: -22%

COc1ccc(C(=O)N2CCC(=Cc3ccc(C4=NCCO4)cc3)CC2)cc1 [AC, 1-(4-methoxybenzoyl)-4-[4-(2-oxazolin-2-yl)benzylidene]piperidine]
percent change in 14C-acetate incorporation into sterols at 0.1 µM [2]: -25% | percent change in 14C-acetate incorporation into sterols at 0.01 µM [2]: -16%

O=C(Cc1ccc(Cl)cc1)N1CCC(=Cc2ccc(C3=NCCO3)cc2)CC1 [AF, 1-(4-chlorophenylacetyl)-4-[4-(2-oxazolin-2-yl)benzylidene]piperidine]
percent change in 14C-acetate incorporation into sterols at 0.1 µM [2]: -63% | percent change in 14C-acetate incorporation into sterols at 0.01 µM [2]: -22%

CC(=C1CCN(C(=O)c2ccc(Cl)cc2)CC1)c1ccc(C2=NCCO2)cc1 [W, 1-(4-chlorobenzoyl)-4-[4-(2-oxazolin-2-yl)-α-methylbenzylidene]piperidine]
percent change in 14C-acetate incorporation into sterols at 0.1 µM [2]: -77% | percent change in 14C-acetate incorporation into sterols at 0.01 µM [2]: -35%

O=C(c1ccc(Cl)cc1)N1CCC(Cc2ccc(C3=NCCS3)cc2)CC1 [P, 1-(4-chlorobenzoyl)-4-[4-(2-thiazolin-2-yl)benzyl]piperidine]
percent change in 14C-acetate incorporation into sterols at 0.1 µM [2]: -14% | percent change in 14C-acetate incorporation into sterols at 0.01 µM [2]: -5%

O=C(c1ccc(Cl)cc1)N1CCC(=Cc2ccc(C3=NCCO3)cc2F)CC1 [L, 1-(4-chlorobenzoyl)-4-[2-fluoro-4-(2-oxazolin-2-yl)benzylidene]piperidine]
2,3-Epoxysqualene concentration in plasma (rat) ([1]; 0.1 mg/kg oral): 0.44 µg/mL | 2,3-Epoxysqualene concentration in plasma (rat) ([1]; 1.0 mg/kg oral): 6.46 µg/mL | percent change in 14C-acetate incorporation into sterols at 0.1 µM [2]: -83% | percent change in 14C-acetate incorporation into sterols at 0.01 µM [2]: -52%

O=C(c1c(F)c(F)c(F)c(F)c1F)N1CCC(=Cc2ccc(C3=NCCO3)cc2)CC1 [Z, 4-[4-(2-oxazolin-2-yl)benzylidene]-1-(pentafluorobenzoyl)piperidine]
percent change in 14C-acetate incorporation into sterols at 0.1 µM [2]: -45% | percent change in 14C-acetate incorporation into sterols at 0.01 µM [2]: -8%

C[C@H]1CN=C(c2ccc(C=C3CCN(C(=O)c4ccc(Cl)cc4)CC3)cc2)O1 [Q, 1-(4-chlorobenzoyl)-4-[4-(S-5-methyl-2-oxazolin-2-yl)benzylidene]piperidine]
percent change in 14C-acetate incorporation into sterols at 0.1 µM [2]: -89% | percent change in 14C-acetate incorporation into sterols at 0.01 µM [2]: -44%

O=C(c1ccc(F)cc1)N1CCC(=Cc2ccc(C3=NCCO3)cc2)CC1 [E, 1-(4-fluorobenzoyl)-4-[4-(2-oxazolin-2-yl)benzylidene]piperidine]
2,3-Epoxysqualene concentration in plasma (rat) ([1]; 0.1 mg/kg oral): 0.67 µg/mL | 2,3-Epoxysqualene concentration in plasma (rat) ([1]; 1.0 mg/kg oral): 6.09 µg/mL | percent change in 14C-acetate incorporation into sterols at 0.1 µM [2]: -81% | percent change in 14C-acetate incorporation into sterols at 0.01 µM [2]: -36%

N#Cc1ccc(C(=O)N2CCC(=Cc3ccc(C4=NCCO4)cc3)CC2)cc1 [Y, 1-(4-cyanobenzoyl)-4-[4-(2-oxazolin-2-yl)benzylidene]piperidine]
percent change in 14C-acetate incorporation into sterols at 0.1 µM [2]: -74% | percent change in 14C-acetate incorporation into sterols at 0.01 µM [2]: -51%

CCN(CC)CC1CN=C(c2ccc(C=C3CCN(C(=O)c4ccc(Cl)cc4)CC3)cc2)O1 (centres unmarked) [T, 1-(4-chlorobenzoyl)-4-[4-(5-diethylaminomethyl-2-oxazolin-2-yl)benzylidene]piperidine]
percent change in 14C-acetate incorporation into sterols at 0.1 µM [2]: -57% | percent change in 14C-acetate incorporation into sterols at 0.01 µM [2]: -29%

O=S(=O)(c1ccc(Cl)cc1)N1CCC(=Cc2ccc(C3=NCCN3)cc2)CC1 [O, 1-(4-chlorobenzenesulphonyl)-4-[4-(2-imidazolin-2-yl)benzylidene]piperidine]
percent change in 14C-acetate incorporation into sterols at 0.1 µM [2]: -45% | percent change in 14C-acetate incorporation into sterols at 0.01 µM [2]: -1%

O=C(c1ccc(Cl)cc1)N1CCC(=Cc2ccc(C3=N[C@@H](Cc4ccccc4)CO3)cc2)CC1 [V, 4-[4-(S-4-benzyl-2-oxazolin-2-yl)benzylidene]-1-(4-chlorobenzoyl)piperidine]
percent change in 14C-acetate incorporation into sterols at 0.1 µM [2]: -29% | percent change in 14C-acetate incorporation into sterols at 0.01 µM [2]: -15%

Cc1cc(C=C2CCN(C(=O)c3ccc(Cl)cc3)CC2)ccc1C1=NCCO1 [M, 1-(4-chlorobenzoyl)-4-[3-methyl-4-(2-oxazolin-2-yl)benzylidene]piperidine]
2,3-Epoxysqualene concentration in plasma (rat) ([1]; 0.1 mg/kg oral): 0.78 µg/mL | 2,3-Epoxysqualene concentration in plasma (rat) ([1]; 1.0 mg/kg oral): 6.53 µg/mL | percent change in 14C-acetate incorporation into sterols at 0.1 µM [2]: -76% | percent change in 14C-acetate incorporation into sterols at 0.01 µM [2]: -32%

O=C(c1cccc2ccccc12)N1CCC(=Cc2ccc(C3=NCCO3)cc2)CC1 [AG, 1-(1-naphthylcarbonyl)-4-[4-(2-oxazolin-2-yl)benzylidene]piperidine]
percent change in 14C-acetate incorporation into sterols at 0.1 µM [2]: -67% | percent change in 14C-acetate incorporation into sterols at 0.01 µM [2]: -30%

O=C(c1ccc(Cl)cc1)N1CCC(=Cc2ccc(C3=NCC(c4ccccc4)O3)cc2)CC1 (centres unmarked) [S, 1-(4-chlorobenzoyl)-4-[4-(5-phenyl-2-oxazolin-2-yl)benzylidene]piperidine]
percent change in 14C-acetate incorporation into sterols at 0.1 µM [2]: -24% | percent change in 14C-acetate incorporation into sterols at 0.01 µM [2]: 0%
